Results: patent US20240374561A1, “METHOD FOR PREVENTING NITRATION OF TYROSINE RESIDUES IN HEPATOCYTE GROWTH FACTOR USING TRISULFIDE COMPOUND” (KYUSHU UNIVERSITY, NATIONAL UNIVERSITY CORPORATION, priority 2021, published 2024)

Legend:
[1] = Solubility in water at 20° C.; format: physicochemical; details: free lipoic acid trisulfide
recombinant mouse HGF = target: T1, recombinant mouse HGF (Mus musculus, UniProt Q08048); test: Inhibition of nitration of recombinant HGF protein by peroxynitrite (ONOO-), Western blot with anti-nitrotyrosine antibody; format: biochemical; details: for inhibit nitration of tyrosine residues in HGF: summary statement
T1 construct: purchased R&D Systems 2207-HG-025/CF
Procedure: GSSSG dihydrate produced by the method described in Patent Literature 1 was added to and mixed with a purified preparation of recombinant mouse HGF (2207-HG-025/CF, manufactured by R&D Systems, carrier free) dissolved in PBS such that the molar ratio of HGF:GSSSG was 1:10, 1:50, or 1:400 to prepare samples. A sample was also prepared in which GSSSG dihydrate was not added and the molar ratio of HGF:GSSSG was 1:0. Peroxynitrite (ONOO^−) was immediately added to each sample such that the molar ratio of HGF:ONOO^− was 1:500. The samples were held at pH 7.2 to 7.4 and 25 to 37° C. for 30 minutes (nitrating treatment) to give nitrated samples.
The obtained nitrated samples were subjected to Western blotting in accordance with a conventional method. The nitrated samples were treated with a solution containing SDS and β-mercaptoethanol to give samples for reduced SDS-PAGE. A 10% polyacrylamide gel was used for electrophoresis. The material of the transfer membrane used was nitrocellulose. HRP-labeled anti-nitrotyrosine monoclonal antibody (catalog number: sc-32757 HRP, manufactured by Santa Cruz Biotechnology) and HRP-labeled anti-HGF monoclonal antibody (catalog number: sc-374422 HRP, manufactured by Santa Cruz Biotechnology) were used. The immune response was recorded on an imaging device using ECL reagents. Nitrated bovine serum albumin (BSAnitro) was used as a positive control sample. PL (Protein Ladder) and MW-STD (Molecular Weight-Standard) in FIG. 1 are molecular weight markers. Further, material A in FIG. 1 means GSSSG.
Nitration treatment and Western blotting were performed in the same manner as in Example 1 except that lipoic acid trisulfide was used instead of GSSSG and the molar ratio of HGF:ONOO was set to 1:4000. In FIG. 1, material B means lipoic acid trisulfide.

T1 sequence (Q08048 33-728): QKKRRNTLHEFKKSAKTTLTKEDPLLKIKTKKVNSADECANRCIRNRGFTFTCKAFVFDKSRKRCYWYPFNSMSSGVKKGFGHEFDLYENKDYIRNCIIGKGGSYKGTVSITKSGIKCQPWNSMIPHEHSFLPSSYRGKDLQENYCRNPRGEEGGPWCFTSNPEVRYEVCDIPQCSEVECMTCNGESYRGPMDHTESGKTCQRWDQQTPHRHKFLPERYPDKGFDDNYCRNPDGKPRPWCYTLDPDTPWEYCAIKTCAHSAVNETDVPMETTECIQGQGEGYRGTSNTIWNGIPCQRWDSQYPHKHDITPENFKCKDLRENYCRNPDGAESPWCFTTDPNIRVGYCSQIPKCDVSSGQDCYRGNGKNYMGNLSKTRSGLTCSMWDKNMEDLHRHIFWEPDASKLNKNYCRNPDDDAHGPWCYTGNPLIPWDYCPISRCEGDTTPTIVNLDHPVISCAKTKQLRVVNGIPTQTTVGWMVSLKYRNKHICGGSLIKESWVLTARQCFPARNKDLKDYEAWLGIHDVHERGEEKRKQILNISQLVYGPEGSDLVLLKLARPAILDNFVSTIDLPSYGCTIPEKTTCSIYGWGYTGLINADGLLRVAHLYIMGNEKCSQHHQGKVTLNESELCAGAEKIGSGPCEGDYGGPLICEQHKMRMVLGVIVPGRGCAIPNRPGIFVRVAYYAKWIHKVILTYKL

Lipoic acid trisulfide Solubility [1] [µg/mL]	inhibit nitration of tyrosine residues in HGF (recombinant mouse HGF)	SMILES	reaction intensity with the anti-nitrotyrosine antibody (nitration of tyrosine residues in HGF) (recombinant mouse HGF; increasing molar ratio of lipoic acid trisulfide, HGF:ONOO 1:4000, otherwise as Example 1, FIG. 2)	reaction intensity with the anti-nitrotyrosine antibody (nitration of tyrosine residues in HGF) (recombinant mouse HGF; molar ratio HGF:GSSSG 1:0, 1:10, 1:50, 1:400, HGF:ONOO- 1:500, pH 7.2 to 7.4, 25 to 37° C., 30 minutes, FIG. 1)
300	–	O=C(O)CCCC[C@@H]1CCSSS1 [Lipoic acid trisulfide R body, (R)-lipoic acid trisulfide]	–	–
–	in a concentration-dependent manner	O=C(O)CCCCC1CCSSS1 (centres unmarked) [lipoic acid trisulfide]	decreased with an increase in the molar ratio of lipoic acid trisulfide added	–
–	in a concentration-dependent manner	N[C@@H](CCC(=O)N[C@@H](CSSSC[C@H](NC(=O)CC[C@H](N)C(=O)O)C(=O)NCC(=O)O)C(=O)NCC(=O)O)C(=O)O [GSSSG, glutathione trisulfide]	–	decreased with an increase in the molar ratio of GSSSG added
